This passage reports inhibition results from patent publication US9062066B2, “Anti-inflammatory compound having inhibitory activity against multiple tyrosine kinases and pharmaceutical composition containing same” (KOREA INSTITUTE OF SCIENCE AND TECHNOLOGY, priority 2010, dated 2015).

Holding throughout (format): biochemical
The target in one assay is DDR2 tyrosine kinase (Homo sapiens (Human), UniProt Q16832). Briefly: in vitro DDR2 tyrosine kinase inhibition (GST-fused kinase domain). The settings on record: 1 uM compound; read-out: % inhibition against DDR2.
The target of a further assay is Lyn tyrosine kinase (Homo sapiens (Human), UniProt P07948). Briefly: in vitro Lyn tyrosine kinase inhibition. The following applies: 1 uM compound; read-out: % inhibition against Lyn.
A further assay has as its target DDR1 tyrosine kinase (Homo sapiens (Human), UniProt Q08345). Briefly: in vitro DDR1 tyrosine kinase inhibition (GST-fused kinase domain). The settings on record: 1 uM compound; read-out: % inhibition against DDR1.
In the next assay the target is Hck tyrosine kinase (Homo sapiens (Human), UniProt P08631). As to the kind of experiment: in vitro Hck tyrosine kinase inhibition. The following applies: 1 uM compound; read-out: % inhibition against Hck.
Another assay has as its target Fgr tyrosine kinase (Homo sapiens (Human), UniProt P09769). Briefly: in vitro Fgr tyrosine kinase inhibition. The following applies: 1 uM compound; read-out: % inhibition against Fgr.
In a further assay the target is c-Src tyrosine kinase (Homo sapiens (Human), UniProt P12931). As to the kind of experiment: in vitro c-Src tyrosine kinase inhibition (32P-ATP, poly(D4Y)n substrate). The following applies: 1 uM compound; read-out: % inhibition against c-Src.

As a reminder, the inhibition is the share of the control response that was lost under treatment.

Fgr tyrosine kinase, sequence (P09769 whole entry): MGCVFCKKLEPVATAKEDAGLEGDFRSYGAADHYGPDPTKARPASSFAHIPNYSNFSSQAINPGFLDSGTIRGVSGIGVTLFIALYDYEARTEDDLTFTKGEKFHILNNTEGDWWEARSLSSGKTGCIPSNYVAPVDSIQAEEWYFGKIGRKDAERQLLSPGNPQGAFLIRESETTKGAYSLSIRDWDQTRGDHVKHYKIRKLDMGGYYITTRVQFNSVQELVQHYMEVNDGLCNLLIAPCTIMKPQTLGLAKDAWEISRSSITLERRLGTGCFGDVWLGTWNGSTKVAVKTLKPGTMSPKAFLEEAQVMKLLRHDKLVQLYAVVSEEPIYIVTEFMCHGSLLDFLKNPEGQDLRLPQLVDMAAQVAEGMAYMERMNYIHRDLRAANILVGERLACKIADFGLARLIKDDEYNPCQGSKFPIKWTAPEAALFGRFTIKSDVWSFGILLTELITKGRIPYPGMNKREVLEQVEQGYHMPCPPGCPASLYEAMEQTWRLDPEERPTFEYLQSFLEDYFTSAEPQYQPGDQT
Hck tyrosine kinase, sequence (P08631 whole entry): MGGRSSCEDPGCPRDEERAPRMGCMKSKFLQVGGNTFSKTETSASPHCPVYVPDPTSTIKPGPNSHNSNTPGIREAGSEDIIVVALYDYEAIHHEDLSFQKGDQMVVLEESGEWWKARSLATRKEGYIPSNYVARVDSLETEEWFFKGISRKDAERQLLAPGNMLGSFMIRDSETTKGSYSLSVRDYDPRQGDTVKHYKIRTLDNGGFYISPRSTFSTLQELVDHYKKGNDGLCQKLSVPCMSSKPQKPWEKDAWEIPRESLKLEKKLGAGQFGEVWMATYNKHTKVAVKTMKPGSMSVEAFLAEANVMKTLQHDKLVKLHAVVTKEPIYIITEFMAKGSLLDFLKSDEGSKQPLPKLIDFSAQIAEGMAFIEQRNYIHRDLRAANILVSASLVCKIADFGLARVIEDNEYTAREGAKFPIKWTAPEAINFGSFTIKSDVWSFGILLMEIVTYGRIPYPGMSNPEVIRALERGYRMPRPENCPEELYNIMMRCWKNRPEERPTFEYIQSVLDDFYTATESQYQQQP
DDR1 tyrosine kinase, sequence (Q08345 610-905): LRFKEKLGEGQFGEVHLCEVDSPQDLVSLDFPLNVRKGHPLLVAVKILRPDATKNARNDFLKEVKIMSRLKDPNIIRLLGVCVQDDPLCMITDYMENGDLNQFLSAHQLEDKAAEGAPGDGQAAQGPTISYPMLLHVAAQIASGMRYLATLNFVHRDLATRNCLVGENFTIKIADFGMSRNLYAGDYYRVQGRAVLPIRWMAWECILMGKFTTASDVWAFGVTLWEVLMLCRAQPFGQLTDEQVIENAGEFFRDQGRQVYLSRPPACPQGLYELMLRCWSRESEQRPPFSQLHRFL
Lyn tyrosine kinase, sequence (P07948 whole entry, the tested form may be a part): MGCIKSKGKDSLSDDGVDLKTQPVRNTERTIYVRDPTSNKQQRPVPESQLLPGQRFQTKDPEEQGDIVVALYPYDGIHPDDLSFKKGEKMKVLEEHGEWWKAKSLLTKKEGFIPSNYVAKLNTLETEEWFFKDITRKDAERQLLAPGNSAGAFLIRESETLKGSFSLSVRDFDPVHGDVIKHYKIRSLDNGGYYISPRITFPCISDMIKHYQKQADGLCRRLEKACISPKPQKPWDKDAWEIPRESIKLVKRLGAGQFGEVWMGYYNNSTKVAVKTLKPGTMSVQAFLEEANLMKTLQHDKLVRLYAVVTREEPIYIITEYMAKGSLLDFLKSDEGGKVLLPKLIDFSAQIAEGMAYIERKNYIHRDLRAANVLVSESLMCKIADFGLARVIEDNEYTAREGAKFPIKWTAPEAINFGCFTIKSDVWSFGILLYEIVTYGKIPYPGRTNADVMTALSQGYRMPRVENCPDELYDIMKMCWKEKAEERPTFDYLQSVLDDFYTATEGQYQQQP
DDR2 tyrosine kinase, sequence (Q16832 563-849): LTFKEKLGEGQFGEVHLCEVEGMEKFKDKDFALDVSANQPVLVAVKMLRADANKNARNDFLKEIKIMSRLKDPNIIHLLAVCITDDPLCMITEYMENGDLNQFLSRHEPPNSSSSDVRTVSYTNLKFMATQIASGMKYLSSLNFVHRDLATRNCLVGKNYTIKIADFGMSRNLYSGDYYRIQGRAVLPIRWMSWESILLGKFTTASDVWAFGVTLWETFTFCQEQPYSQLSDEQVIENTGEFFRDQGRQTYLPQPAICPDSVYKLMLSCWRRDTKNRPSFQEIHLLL
c-Src tyrosine kinase, sequence (P12931 whole entry, looked up): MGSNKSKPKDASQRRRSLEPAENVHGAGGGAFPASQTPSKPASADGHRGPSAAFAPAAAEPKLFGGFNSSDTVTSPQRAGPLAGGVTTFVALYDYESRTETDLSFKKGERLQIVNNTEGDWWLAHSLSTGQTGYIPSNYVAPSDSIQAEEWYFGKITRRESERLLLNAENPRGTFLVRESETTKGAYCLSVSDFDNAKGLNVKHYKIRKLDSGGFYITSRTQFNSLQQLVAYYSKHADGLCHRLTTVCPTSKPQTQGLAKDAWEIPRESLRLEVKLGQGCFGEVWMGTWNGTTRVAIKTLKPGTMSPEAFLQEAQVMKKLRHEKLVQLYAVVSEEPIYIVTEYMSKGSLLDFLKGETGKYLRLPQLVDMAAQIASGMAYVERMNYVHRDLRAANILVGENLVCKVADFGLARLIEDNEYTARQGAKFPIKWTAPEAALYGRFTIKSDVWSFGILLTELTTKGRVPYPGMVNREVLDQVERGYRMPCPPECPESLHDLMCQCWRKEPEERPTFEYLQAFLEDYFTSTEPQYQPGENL

For `N#Cc1ccc(-c2cc3ncnc(Nc4cccc(O)c4)c3s2)cc1` [LCB 03-0013, 4-(4-(3-hydroxyphenylamino)thieno[3,2-d]pyrimidin-6-yl)benzonitrile], the inhibition at 1 µM at DDR2 tyrosine kinase is above 60%; at Lyn tyrosine kinase, above 70%; on DDR1 tyrosine kinase it was above 60%; on Hck tyrosine kinase, above 70%; on Fgr tyrosine kinase, above 60%; at c-Src tyrosine kinase, above 70%.
For `COc1cccc(Nc2ncnc3cc(-c4ccc(O)cc4)sc23)c1` [LCB 03-0016, 4-(4-(3-methoxyphenylamino)thieno[3,2-d]pyrimidin-6-yl)phenol], the inhibition at 1 µM was above 20% on DDR2 tyrosine kinase; above 70% on Lyn tyrosine kinase; above 20% on DDR1 tyrosine kinase; above 70% on Hck tyrosine kinase; above 70% on Fgr tyrosine kinase; above 70% at c-Src tyrosine kinase.
Consider `Oc1cccc(Nc2ncnc3cc(-c4ccc(Cl)cc4)sc23)c1` [LCB 03-0019, 3-(6-(4-chlorophenyl)thieno[3,2-d]pyrimidin-4-ylamino)phenol], for which the inhibition at 1 µM is above 70% on DDR2 tyrosine kinase; above 60% on Lyn tyrosine kinase; above 70% at DDR1 tyrosine kinase; above 60% on Hck tyrosine kinase; above 60% at Fgr tyrosine kinase; above 60% at c-Src tyrosine kinase.
In the case of `Oc1cccc(Nc2ncnc3cc(-c4ccc(OCCN5CCOCC5)cc4)sc23)c1` [LCB 03-0020, 3-(6-(4-(2-morpholinoethoxy)phenyl)thieno[3,2-d]pyrimidin-4-ylamino)phenol], the inhibition at 1 µM at DDR2 tyrosine kinase was above 60%; at Lyn tyrosine kinase it was above 70%; on DDR1 tyrosine kinase it was above 60%; on Hck tyrosine kinase it was above 70%; at Fgr tyrosine kinase it was above 70%; at c-Src tyrosine kinase it was above 70%.
`COc1cccc(Nc2ncnc3cc(-c4ccc(OCCc5ccccc5)cc4)sc23)c1` [LCB 03-0021, N-(3-methoxyphenyl)-6-(4-phenethoxyphenyl)thieno[3,2-d]pyrimidin-4-amine]: the inhibition at 1 µM at DDR2 tyrosine kinase was above 30%; on Lyn tyrosine kinase it was above 60%; at DDR1 tyrosine kinase, above 30%; on Hck tyrosine kinase it was above 60%; at Fgr tyrosine kinase it was above 60%; on c-Src tyrosine kinase it was above 50%.
With `COc1cccc(Nc2ncnc3cc(-c4ccc(OCCc5ccccn5)cc4)sc23)c1` [LCB 03-0022, N-(3-methoxyphenyl)-6-(4-(2-(pyridin-2-yl)ethoxy)phenyl)thieno[3,2-d]pyrimidin-4-amine], the inhibition at 1 µM at DDR2 tyrosine kinase was above 10%; at Lyn tyrosine kinase it was above 60%; on DDR1 tyrosine kinase, above 10%; on Hck tyrosine kinase, above 60%; on Fgr tyrosine kinase, above 60%; at c-Src tyrosine kinase, above 60%.
Consider `COc1cccc(Nc2ncnc3cc(-c4ccco4)sc23)c1` [LCB 03-0023, (6-Furan-2-yl-thieno[3,2-d]pyrimidin-4-yl)-(3-methoxyphenyl)-amine], for which the inhibition at 1 µM on DDR2 tyrosine kinase is above 60%; on Lyn tyrosine kinase it was above 40%; on DDR1 tyrosine kinase, above 60%; at Hck tyrosine kinase it was above 40%; at Fgr tyrosine kinase, above 40%; at c-Src tyrosine kinase it was above 40%.
For the molecule `COc1cccc(Nc2ncnc3cc(-c4ccoc4)sc23)c1` [LCB 03-0024, (6-Furan-3-yl-thieno[3,2-d]pyrimidin-4-yl)-(3-methoxyphenyl)-amine], the inhibition at 1 µM on DDR2 tyrosine kinase was above 70%; on Lyn tyrosine kinase, above 30%; on DDR1 tyrosine kinase, above 70%; at Hck tyrosine kinase it was above 30%; on Fgr tyrosine kinase, above 30%; on c-Src tyrosine kinase, above 30%.
Consider `COc1cccc(Nc2ncnc3cc(-c4ccc(OCCN5CCCC5)cc4)sc23)c1` [LCB 03-0026, N-(3-methoxyphenyl)-6-(4-(2-(pyrrolidin-1-yl)ethoxy)phenyl)thieno[3,2-d]pyrimidin-4-amine], for which the inhibition at 1 µM at DDR2 tyrosine kinase is above 20%; on Lyn tyrosine kinase, above 40%; on DDR1 tyrosine kinase it was above 20%; at Hck tyrosine kinase, above 60%; on Fgr tyrosine kinase, above 60%; at c-Src tyrosine kinase, above 60%.
`COc1cccc(Nc2ncnc3cc(-c4cccs4)sc23)c1` [LCB 03-0027, N-(3-methoxyphenyl)-6-(thiophene-2-yl)thieno[3,2-d]pyrimidin-4-amine]: the inhibition at 1 µM at DDR2 tyrosine kinase is above 70%; at Lyn tyrosine kinase, above 40%; at DDR1 tyrosine kinase, above 70%; on Hck tyrosine kinase it was above 40%; on Fgr tyrosine kinase it was above 40%; at c-Src tyrosine kinase, above 40%.
Regarding `COc1cccc(Nc2ncnc3cc(-c4ccsc4)sc23)c1` [LCB 03-0028, (3-Methoxyphenyl)-(6-thiophene-3-yl-thieno[3,2-d]pyrimidin-4-yl)-amine], the inhibition at 1 µM on DDR2 tyrosine kinase is above 50%; on Lyn tyrosine kinase it was above 30%; on DDR1 tyrosine kinase, above 50%; at Hck tyrosine kinase, above 30%; on Fgr tyrosine kinase, above 30%; at c-Src tyrosine kinase, above 30%.
In the case of `COc1cccc(Nc2ncnc3cc(-c4ccc(OCCN5CCNCC5)cc4)sc23)c1` [LCB 03-0029, N-(3-methoxyphenyl)-6-(4-(2-(piperazin-1-yl)ethoxy)phenyl)thieno[3,2-d]pyrimidin-4-amine], the inhibition at 1 µM on DDR2 tyrosine kinase is above 20%; at Lyn tyrosine kinase it was above 60%; on DDR1 tyrosine kinase it was above 20%; on Hck tyrosine kinase it was above 60%; on Fgr tyrosine kinase, above 60%; at c-Src tyrosine kinase, above 60%.
As to `Oc1cccc(Nc2ncnc3cc(-c4ccsc4)sc23)c1` [LCB 03-0031, 3-(6-Thiophene-3-yl-thieno[3,2-d]pyrimidin-4-ylamino)-phenol], the inhibition at 1 µM at DDR2 tyrosine kinase is above 70%; on Lyn tyrosine kinase, above 30%; on DDR1 tyrosine kinase it was above 70%; at Hck tyrosine kinase, above 40%; on Fgr tyrosine kinase it was above 40%; on c-Src tyrosine kinase, above 40%.
Consider `Oc1cccc(Nc2ncnc3cc(-c4ccc(CCN5CCCCC5)cc4)sc23)c1` [LCB 03-0044], for which the inhibition at 1 µM at DDR2 tyrosine kinase is above 80%; at Lyn tyrosine kinase, above 30%; on DDR1 tyrosine kinase it was above 80%; at Hck tyrosine kinase, above 30%; on Fgr tyrosine kinase, above 30%; on c-Src tyrosine kinase, above 30%.
For the molecule `CN1CCN(CCc2ccc(-c3cc4ncnc(Nc5cccc(O)c5)c4s3)cc2)CC1` [LCB 03-0045], the inhibition at 1 µM on DDR2 tyrosine kinase is above 80%; at Lyn tyrosine kinase, above 30%; on DDR1 tyrosine kinase it was above 80%; on Hck tyrosine kinase, above 20%; on Fgr tyrosine kinase, above 20%; at c-Src tyrosine kinase, above 30%.
In the case of `Oc1cccc(Nc2ncnc3cc(-c4ccc(CCN5CCOCC5)cc4)sc23)c1` [LCB 03-0046, 3-(6-(4-(2-morpholinoethyl)phenyl)thieno[3,2-d]pyrimidin-4-ylamino)phenol], the inhibition at 1 µM on DDR2 tyrosine kinase is above 80%; at Lyn tyrosine kinase, above 30%; on DDR1 tyrosine kinase, above 80%; on Hck tyrosine kinase it was above 30%; at Fgr tyrosine kinase it was above 30%; at c-Src tyrosine kinase it was above 30%.
Turning to `CCN(CC)C(=O)Cc1ccc(-c2cc3ncnc(Nc4cccc(O)c4)c3s2)cc1` [LCB 03-0050, N,N-diethyl-2-(4-(4-(3-hydroxyphenylamino)thieno[3,2-d]pyrimidin-6-yl)phenyl)acetamide], the inhibition at 1 µM was above 80% on DDR2 tyrosine kinase; above 40% at Lyn tyrosine kinase; above 80% at DDR1 tyrosine kinase; above 40% at Hck tyrosine kinase; above 40% at Fgr tyrosine kinase; above 40% at c-Src tyrosine kinase.
In the case of `O=C(O)c1cccc(-c2cc3ncnc(Nc4cccc(O)c4)c3s2)c1` [LCB 03-0051, 3-(4-(3-hydroxyphenylamino)thieno[3,2-d]pyrimidin-6-yl)benzoic acid], the inhibition at 1 µM at DDR2 tyrosine kinase and at DDR1 tyrosine kinase was above 80% in each case.
Regarding `CN1CCN(C(=O)c2ccc(-c3cc4ncnc(Nc5cccc(O)c5)c4s3)cc2)CC1` [LCB 03-0052, (4-(4-(3-hydroxyphenylamino)thieno[3,2-d]pyrimidin-6-yl)phenyl)(4-methylpiperazin-1-yl)methanone], the inhibition at 1 µM was above 80% at DDR2 tyrosine kinase; above 60% on Lyn tyrosine kinase; above 80% on DDR1 tyrosine kinase; above 60% at Hck tyrosine kinase; above 50% on Fgr tyrosine kinase; above 60% at c-Src tyrosine kinase.
Consider `CN1CCN(C(=O)c2cccc(-c3cc4ncnc(Nc5cccc(O)c5)c4s3)c2)CC1` [LCB 03-0055, (3-(4-(3-hydroxyphenylamino)thieno[3,2-d]pyrimidin-6-yl)phenyl)(4-methylpiperazin-1-yl)methanone], for which the inhibition at 1 µM was above 80% on DDR2 tyrosine kinase; above 50% on Lyn tyrosine kinase; above 80% on DDR1 tyrosine kinase; above 50% on Hck tyrosine kinase; above 50% at Fgr tyrosine kinase; above 50% on c-Src tyrosine kinase.
Consider `NC(=O)C1CCCN1Cc1ccc(-c2cc3ncnc(Nc4cccc(O)c4)c3s2)cc1` (stereo not drawn) [LCB 03-0068, 1-(4-(4-(3-hydroxyphenylamino)thieno[3,2-d]pyrimidin-6-yl)benzyl)pyrrolidine-2-carboxamide], for which the inhibition at 1 µM at DDR2 tyrosine kinase and at DDR1 tyrosine kinase was above 80% in each case.
Consider `O=C(O)C1CCCN1Cc1ccc(-c2cc3ncnc(Nc4cccc(O)c4)c3s2)cc1` (stereo not drawn) [LCB 03-0069, 1-(4-(4-(3-hydroxyphenylamino)thieno[3,2-d]pyrimidin-6-yl)benzyl)pyrrolidine-2-carboxylic acid], for which the inhibition at 1 µM on DDR2 tyrosine kinase and on DDR1 tyrosine kinase was above 50% in each case.
